The record followed here is patent US7202265B2, “Indolinone combinatorial libraries and related products and methods for the treatment of disease” (Sugen, Inc., priority 1997, dated 2007).

The assay concerns human MET. In words: MET biochemical kinase assay. On the set-up: concentration or dose not given beside the values. An excerpt: (d) MET Biochemical Kinase Assay
A met biochemical kinase assay may be performed for met generally as described above for other kinases by substituting that or the other kinases. In particular, ELISA plates are coated with goat anti-rabbit Fc antibodies, which are used to capture commercially available (from Santa Cruz Biotechnology) rabbit polyclonal antibodies to the cytoplasmic domain of human MET. […] The chimeric receptors, or MET, from these lysates are captured on the antibody coated plates. After washing away extraneous proteins, test compounds are added and an in vitro kinase assay is performed by addition of an appropriate kinase buffer (containing ATP, divalent metal ions, etc.). Incorporation of phosphate into the captured receptors is detected with an anti-phosphotyrosine antibody conjugate with horse radish peroxidase using TMB as a substrate for calorimetric detection.
With `CC(C)(C)c1cc(C=C2C(=O)Nc3ccc(CCCl)cc32)ccc1O` [10721/G09], the “Met Kinase % Inhibition” value worked out at 5.1%.

`CC(C)(C)c1cc(C=C2C(=O)Nc3ccc(CCCl)cc32)cc(Br)c1O` [10721/G10]: the “Met Kinase % Inhibition” value came to 12.0%. With `CC(C)(C)c1cc(C=C2C(=O)Nc3ccc(CCCl)cc32)cc(C(C)(C)C)c1O` [10721/G11] the figure was −0.0%; with `CCCCN(CCCC)c1ccc(C=C2C(=O)Nc3c(Br)cc(Br)cc32)cc1` [10722/A10], 79.0%; with `CC(C)(C)c1cc(C=C2C(=O)Nc3ccc(I)cc32)cc(Cl)c1O` [10722/B08], 72.0%. To `O=C1Nc2ccc(I)cc2C1=Cc1ccc(C(F)(F)F)cc1` [10722/B11] belongs 83.0%; to `CNS(=O)(=O)c1ccc2c(c1)C(=Cc1ccc(C(F)(F)F)cc1)C(=O)N2` [10722/D11], 41.0%. To `O=C1Nc2ccc(S(=O)(=O)Nc3ccc(C(F)(F)F)cc3)cc2C1=Cc1ccc(C(=O)O)cc1` [10722/E05] belongs 73.0%.

Turning to `O=C1Nc2ccc(S(=O)(=O)Nc3ccc(C(F)(F)F)cc3)cc2C1=Cc1ccc(C(F)(F)F)cc1` [10722/E11], the “Met Kinase % Inhibition” value was 84.0%. With `CC(C)(C)c1cc(C=C2C(=O)Nc3ccc(CCCl)cc32)cc([N+](=O)[O-])c1O` [10722/G02] the figure was 43.0%. With `O=C1Nc2ccc(CCCl)cc2C1=Cc1ccc(C(=O)O)cc1` [10722/G05] the figure was 9.7%; with `O=C1Nc2ccc(CCCl)cc2C1=Cc1csc([N+](=O)[O-])c1` [10722/G09], 51.0%; with `CCCCN(CCCC)c1ccc(C=C2C(=O)Nc3ccc(CCCl)cc32)cc1` [10722/G10], 27.0%.

Turning to `CC(C)(C)c1cc(C=C2C(=O)Nc3c(Br)cc(Br)cc32)c(O)c(C(C)(C)C)c1` [10723/A11], the “Met Kinase % Inhibition” value is 60.0%. To `Cc1c(Br)ccc2c1C(=Cc1ccc(O)cc1O)C(=O)N2` [10723/C08] belongs 83.0%; to `Cc1c(Br)ccc2c1C(=Cc1cc(C(C)(C)C)cc(C(C)(C)C)c1O)C(=O)N2` [10723/C11], 47.0%; to `CNS(=O)(=O)c1ccc2c(c1)C(=Cc1ccc(O)c(O)c1O)C(=O)N2` [10723/D02], 93.0%. With `CNS(=O)(=O)c1ccc2c(c1)C(=Cc1ccc(O)c(C)c1)C(=O)N2` [10723/D06] the figure was 60.0%. To `CNS(=O)(=O)c1ccc2c(c1)C(=Cc1cc(C(C)(C)C)cc(C(C)(C)C)c1O)C(=O)N2` [10723/D11] belongs 42.0%.

For `O=C1Nc2ccc(S(=O)(=O)N3CCOCC3)cc2C1=Cc1ccc(O)c(O)c1O` [10723/F02], the “Met Kinase % Inhibition” value was determined as 99.0%.

Consider `O=C1Nc2ccc(S(=O)(=O)N3CCOCC3)cc2C1=Cc1cc(O)c(O)c(Br)c1` [10723/F04], for which the “Met Kinase % Inhibition” value was 94.0%. To `O=C1Nc2ccc(CCCl)cc2C1=Cc1ccccc1Br` [10723/G07] belongs 43.0%. Take `O=C1Nc2ccc(I)cc2C1=Cc1ccc(O)c([N+](=O)[O-])c1` [10724/B03]: the “Met Kinase % Inhibition” value is reported as 51.0%. To `CCc1ccc(C=C2C(=O)Nc3ccc(I)cc32)o1` [10724/B10] belongs 95.0%; to `Cc1csc2sc(C=C3C(=O)Nc4ccc(I)cc43)c(C)c12` [10724/B11], 43.0%. With `Cc1c(Br)ccc2c1C(=Cc1cccn1-c1ccc(Cl)cc1)C(=O)N2` [10724/C09] the figure was 5.3%. To `Cc1c(Br)ccc2c1C(=Cc1sc3scc(C)c3c1C)C(=O)N2` [10724/C11] belongs 4.9%; to `CNS(=O)(=O)c1ccc2c(c1)C(=Cc1cc(C(C)C)c(O)c(C(C)C)c1)C(=O)N2` [10724/D06], 23.0%; to `O=C1Nc2ccc(S(=O)(=O)Nc3ccc(C(F)(F)F)cc3)cc2C1=Cc1cccn1-c1ccc(Cl)cc1` [10724/E09], 27.0%. Regarding `CCc1ccc(C=C2C(=O)Nc3ccc(S(=O)(=O)Nc4ccc(C(F)(F)F)cc4)cc32)o1` [10724/E10], the “Met Kinase % Inhibition” value worked out at 84.0%. To `O=C1Nc2ccc(CCCl)cc2C1=Cc1ccc([N+](=O)[O-])c(O)c1` [10724/G04] belongs 71.0%; to `O=C1Nc2ccc(CCCl)cc2C1=Cc1cc2c3c(c1O)CCCN3CCC2` [10724/G05], 61.0%. In the case of `O=C1Nc2ccc(CCCl)cc2C1=Cc1cc2ccccc2o1` [10724/G07], the “Met Kinase % Inhibition” value is listed as 2.3%. Turning to `O=C1Nc2ccc(CCCl)cc2C1=Cc1cccn1-c1ccc(Cl)cc1` [10724/G09], the “Met Kinase % Inhibition” value is given as −2.8%. To `COc1ccc(Br)c(C=C2C(=O)Nc3c(Br)cc(Br)cc32)c1O` [10725/A03] belongs 68.0%. With `O=CN1CCN(c2ccc(C=C3C(=O)Nc4ccc(I)cc43)cc2)CC1` [10725/B07] the figure was 74.0%. `Cc1c(Br)ccc2c1C(=Cc1sccc1Br)C(=O)N2` [10725/C02]: the “Met Kinase % Inhibition” value was determined as 6.3%. With `Cc1c(Br)ccc2c1C(=Cc1ccc(N3CCOCC3)cc1)C(=O)N2` [10725/C08] the figure was 28.0%; with `Cc1c(Br)ccc2c1C(=Cc1c(Br)cnn1-c1ccc(Cl)cc1)C(=O)N2` [10725/C10], −0.6%; with `CNS(=O)(=O)c1ccc2c(c1)C(=Cc1sccc1Br)C(=O)N2` [10725/D02], 14.0%. To `CNS(=O)(=O)c1ccc2c(c1)C(=Cc1ccc(N3CCN(C=O)CC3)cc1)C(=O)N2` [10725/D07] belongs 37.0%; to `CNS(=O)(=O)c1ccc2c(c1)C(=Cc1[nH]c(Cl)c(CC(=O)OC)c1C(=O)OC)C(=O)N2` [10725/D09], 28.0%. To `Cc1ccc(C=C2C(=O)Nc3ccc(S(=O)(=O)Nc4ccc(C(F)(F)F)cc4)cc32)o1` [10725/E04] belongs 59.0%; to `O=C1Nc2ccc(S(=O)(=O)Nc3ccc(C(F)(F)F)cc3)cc2C1=Cc1c(Br)cnn1-c1ccc(Cl)cc1` [10725/E10], −4.7%; to `O=C1Nc2ccc(S(=O)(=O)Nc3ccc(C(F)(F)F)cc3)cc2C1=Cc1c[nH]cn1` [10725/E11], 9.6%. On to `COC(=O)Cc1c(Cl)[nH]c(C=C2C(=O)Nc3ccc(CCCl)cc32)c1C(=O)OC` [10725/G09], for which the “Met Kinase % Inhibition” value was 4.7%. With `Cc1c(Br)ccc2c1C(=Cc1ccc(Br)o1)C(=O)N2` [10726/C05] the figure was 58.0%; with `CNS(=O)(=O)c1ccc2c(c1)C(=Cc1ccc(OC)cc1)C(=O)N2` [10726/D11], 9.6%.

In the case of `O=C1Nc2ccc(S(=O)(=O)Nc3ccc(C(F)(F)F)cc3)cc2C1=Cc1ccc(Br)o1` [10726/E05], the “Met Kinase % Inhibition” value amounted to 71.0%. With `Cc1cn(C)cc1C=C1C(=O)Nc2ccc(S(=O)(=O)Nc3ccc(C(F)(F)F)cc3)cc21` [10726/E06] the figure was −7.4%; with `O=C1Nc2ccc(S(=O)(=O)Nc3ccc(C(F)(F)F)cc3)cc2C1=Cc1cc(O)c2c(c1O)CCCC2` [10726/E07], 84.0%. With `CCN(CC)c1ccc(C=C2C(=O)Nc3c(Br)cc(Br)cc32)cc1` [10727/A02] the figure was 52.0%. With `O=C1Nc2c(Br)cc(Br)cc2C1=Cc1ccccc1Sc1ccc(Cl)cc1` [10727/A05] the figure was 29.0%; with `N#Cc1cccc(C=C2C(=O)Nc3c(Br)cc(Br)cc32)c1` [10727/A08], 9.7%. `O=C1Nc2ccc(I)cc2C1=Cc1cc2c(cc1Cl)OCO2` [10727/B06]: the “Met Kinase % Inhibition” value worked out at 91.0%.

For `Cc1c(Br)ccc2c1C(=Cc1ccccc1Sc1ccc(Cl)cc1)C(=O)N2` [10727/C05], the “Met Kinase % Inhibition” value stood at 8.9%.

Turning to `CCc1cc(CC)c(C=C2C(=O)Nc3ccc(S(=O)(=O)NC)cc32)[nH]1` [10727/D03], the “Met Kinase % Inhibition” value was found to be 24.0%. With `CNS(=O)(=O)c1ccc2c(c1)C(=Cc1cc(Cl)cc(Br)c1O)C(=O)N2` [10727/D04] the figure was 76.0%. To `CCN(CC)c1ccc(C=C2C(=O)Nc3ccc(S(=O)(=O)Nc4ccc(C(F)(F)F)cc4)cc32)cc1` [10727/E02] belongs 28.0%. To `O=C1Nc2ccc(S(=O)(=O)Nc3ccc(C(F)(F)F)cc3)cc2C1=Cc1cc2c(cc1Cl)OCO2` [10727/E06] belongs −2.2%; to `N#Cc1cccc(C=C2C(=O)Nc3ccc(S(=O)(=O)Nc4ccc(C(F)(F)F)cc4)cc32)c1` [10727/E08], 27.0%; to `COc1cccc(C=C2C(=O)Nc3ccc(S(=O)(=O)Nc4ccc(C(F)(F)F)cc4)cc32)c1OC` [10727/E11], −5.4%.

In the case of `CCN(CC)c1ccc(C=C2C(=O)Nc3ccc(S(=O)(=O)N4CCOCC4)cc32)cc1` [10727/F02], the “Met Kinase % Inhibition” value came out at 52.0%.

Regarding `CCc1cc(CC)c(C=C2C(=O)Nc3ccc(S(=O)(=O)N4CCOCC4)cc32)[nH]1` [10727/F03], the “Met Kinase % Inhibition” value was determined as 22.0%. To `O=C1Nc2ccc(S(=O)(=O)N3CCOCC3)cc2C1=Cc1cc(Cl)cc(Br)c1O` [10727/F04] belongs 92.0%; to `O=C1Nc2ccc(S(=O)(=O)N3CCOCC3)cc2C1=Cc1ccccc1Sc1ccc(Cl)cc1` [10727/F05], 6.0%. With `N#Cc1ccc(C=C2C(=O)Nc3ccc(S(=O)(=O)N4CCOCC4)cc32)cc1` [10727/F09] the figure was 9.3%; with `COc1cccc(C=C2C(=O)Nc3ccc(S(=O)(=O)N4CCOCC4)cc32)c1OC` [10727/F11], −3.0%.
